Assay results taken from patent publication US20080009551A1, “Methods and Compositions for Identifying Modulators of G Protein-Coupled Receptors” (Arena Pharmaceuticals, Inc., priority 2003, published 2008).

Key:
[1] = system: niacin receptor; experiment: Upregulation of GURC-modified niacin receptor (luciferase assay); assay type: cell-based; conditions: FIG. 15A
[2] = system: β2 adrenergic receptor; experiment: Upregulation of GURC-modified β2 adrenergic receptor (luciferase assay); assay type: cell-based; conditions: FIG. 15B
[3] = system: histamine receptor H3; conditions: FIG. 14
Chain of histamine receptor H3 (as listed by the source): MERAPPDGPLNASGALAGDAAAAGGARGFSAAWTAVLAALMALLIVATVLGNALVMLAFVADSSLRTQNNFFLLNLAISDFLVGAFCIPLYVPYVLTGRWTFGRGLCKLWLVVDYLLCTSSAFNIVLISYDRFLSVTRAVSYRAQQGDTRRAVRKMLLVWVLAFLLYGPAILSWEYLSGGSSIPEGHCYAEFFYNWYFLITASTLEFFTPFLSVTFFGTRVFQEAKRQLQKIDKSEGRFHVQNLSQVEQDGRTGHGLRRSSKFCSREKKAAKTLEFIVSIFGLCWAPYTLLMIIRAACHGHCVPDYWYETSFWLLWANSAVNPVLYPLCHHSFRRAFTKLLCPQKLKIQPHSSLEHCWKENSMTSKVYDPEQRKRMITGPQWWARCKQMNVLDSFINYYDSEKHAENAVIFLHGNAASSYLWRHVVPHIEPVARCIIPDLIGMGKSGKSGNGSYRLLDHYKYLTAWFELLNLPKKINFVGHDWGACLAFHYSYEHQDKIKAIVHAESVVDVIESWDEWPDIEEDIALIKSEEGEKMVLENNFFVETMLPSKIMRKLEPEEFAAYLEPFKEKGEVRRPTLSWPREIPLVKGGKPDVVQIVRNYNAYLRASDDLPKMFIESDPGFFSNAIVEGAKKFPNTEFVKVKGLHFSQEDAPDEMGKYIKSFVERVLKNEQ

Row | Molecule | upregulation of the niacin receptor [1] | upregulation of the β2 adrenergic receptor [2] | potency at histamine receptor H3 [3]
1 | Nc1ncnc2c1ncn2[C@@H]1O[C@H](COP(=O)(O)OP(=O)(O)OC[C@@H]2O[C@H]([n+]3cccc(C(=O)[O-])c3)[C@@H](O)[C@H]2O)[C@@H](O)[C@H]1OP(=O)(O)O [NAADP-β] | dose-dependent upregulation | lack of dose-dependent upregulation | –
2 | COC(=O)c1cccnc1 [methyl nicotinate] | dose-dependent upregulation | lack of dose-dependent upregulation | –
3 | Methyl histamine | – | – | low potency
